Assay results: the supplement of paper PMC10307832

Key:
Assay in all cases: relative viability (nuclei count vs DMSO), 5 days (fraction); higher = more cells survive
CAP-232 = compound: C[C@H]([C@@H](C(=O)N)NC(=O)[C@@H]1CSSC[C@@H](C(=O)N[C@H](C(=O)N[C@@H](C(=O)N[C@H](C(=O)N1)CCCCN)CC2=CNC3=CC=CC=C32)CC4=CC=C(C=C4)O)NC(=O)[C@@H](CC5=CC=CC=C5)N)O [CAP-232]
In short: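 Lung cancer cell lines in 1536-well plates were kept overnight at 37 °C, then pinned with five library-drug doses (not always all listed) spaced by √10 on vehicle-anchored plates. After 5 days without medium change, cells were fixed, permeabilised and Hoechst-stained in one step, imaged at 4×, and nuclei were counted with MetaXpress. Viability is treated-well nuclei divided by vehicle-well nuclei, taken as the median over plates. Plates passed only with control CV below 25% and at least one doubling.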

CAP-232 + Navitoclax = compound: C[C@H]([C@@H](C(=O)N)NC(=O)[C@@H]1CSSC[C@@H](C(=O)N[C@H](C(=O)N[C@@H](C(=O)N[C@H](C(=O)N1)CCCCN)CC2=CNC3=CC=CC=C32)CC4=CC=C(C=C4)O)NC(=O)[C@@H](CC5=CC=CC=C5)N)O [CAP-232] + CC1(C)CCC(c2ccc(Cl)cc2)=C(CN2CCN(c3ccc(C(=O)NS(=O)(=O)c4ccc(N[C@H](CCN5CCOCC5)CSc5ccccc5)c(S(=O)(=O)C(F)(F)F)c4)cc3)CC2)C1 [Navitoclax] (partner 0.5 µM)
In short: (§1)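 Values are medians from duplicate plates. Each reflects relative viability, defined as the nuclei count of treated wells over that of vehicle wells. Lung cancer cell lines in 1536-well plates were pin-tool dosed one day after seeding with one drug alone or with a fixed anchor-drug dose plus five library-drug doses (not always all listed) in √10 steps, then fixed, stained and imaged at 4× after 5 days.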

CAP-232 + OSI-027 = compound: C[C@H]([C@@H](C(=O)N)NC(=O)[C@@H]1CSSC[C@@H](C(=O)N[C@H](C(=O)N[C@@H](C(=O)N[C@H](C(=O)N1)CCCCN)CC2=CNC3=CC=CC=C32)CC4=CC=C(C=C4)O)NC(=O)[C@@H](CC5=CC=CC=C5)N)O [CAP-232] + COc1cccc2cc(-c3nc([C@H]4CC[C@H](C(=O)O)CC4)n4ncnc(N)c34)[nH]c12 [OSI-027] (partner 0.5 µM)
In short: as §1

CAP-232 + Pictilisib = compound: C[C@H]([C@@H](C(=O)N)NC(=O)[C@@H]1CSSC[C@@H](C(=O)N[C@H](C(=O)N[C@@H](C(=O)N[C@H](C(=O)N1)CCCCN)CC2=CNC3=CC=CC=C32)CC4=CC=C(C=C4)O)NC(=O)[C@@H](CC5=CC=CC=C5)N)O [CAP-232] + CS(=O)(=O)N1CCN(Cc2cc3nc(-c4cccc5[nH]ncc45)nc(N4CCOCC4)c3s2)CC1 [Pictilisib] (partner 1 µM)
In short: as §1

CAP-232 + Decitabine = compound: C[C@H]([C@@H](C(=O)N)NC(=O)[C@@H]1CSSC[C@@H](C(=O)N[C@H](C(=O)N[C@@H](C(=O)N[C@H](C(=O)N1)CCCCN)CC2=CNC3=CC=CC=C32)CC4=CC=C(C=C4)O)NC(=O)[C@@H](CC5=CC=CC=C5)N)O [CAP-232] + Nc1ncn([C@H]2C[C@H](O)[C@@H](CO)O2)c(=O)n1 [Decitabine] (partner 2 µM)
In short: as §1

Row | Cell Line | relative viability (CAP-232; 0.4 µM) | relative viability (CAP-232; 1.265 µM) | relative viability (CAP-232; 4 µM) | relative viability (CAP-232; 12.65 µM) | relative viability (CAP-232 + Navitoclax; first compound 0.4 µM) | relative viability (CAP-232 + Navitoclax; first compound 1.265 µM) | relative viability (CAP-232 + Navitoclax; first compound 4 µM) | relative viability (CAP-232 + Navitoclax; first compound 12.65 µM) | relative viability (CAP-232 + OSI-027; first compound 0.4 µM) | relative viability (CAP-232 + OSI-027; first compound 1.265 µM) | relative viability (CAP-232 + OSI-027; first compound 4 µM) | relative viability (CAP-232 + OSI-027; first compound 12.65 µM) | relative viability (CAP-232 + Pictilisib; first compound 0.4 µM) | relative viability (CAP-232 + Pictilisib; first compound 1.265 µM) | relative viability (CAP-232 + Pictilisib; first compound 4 µM) | relative viability (CAP-232 + Pictilisib; first compound 12.65 µM) | relative viability (CAP-232 + Decitabine; first compound 0.4 µM) | relative viability (CAP-232 + Decitabine; first compound 1.265 µM) | relative viability (CAP-232 + Decitabine; first compound 4 µM) | relative viability (CAP-232 + Decitabine; first compound 12.65 µM)
1 | LC-2-ad | 1.17 | 0.95 | 1.07 | 1.03 | 0.428 | 0.363 | 0.497 | 0.33 | 0.954 | 0.852 | 0.756 | 0.559 | 0.404 | 0.409 | 0.63 | 0.458 | 0.866 | 0.705 | 0.76 | 0.771
2 | LCLC-97TM1 | 1.02 | 0.943 | 0.986 | 0.965 | 0.408 | 0.294 | 0.397 | 0.366 | 0.437 | 0.523 | 0.601 | 0.486 | 0.217 | 0.193 | 0.232 | 0.193 | 0.195 | 0.211 | 0.192 | 0.237
3 | LK-2 | 1.08 | 0.957 | 1.1 | 0.976 | 0.733 | 0.791 | 1.01 | 0.622 | 0.197 | 0.18 | 0.231 | 0.175 | 0.42 | 0.608 | 0.494 | 0.61 | 0.357 | 0.234 | 0.37 | 0.302
4 | LOU-NH91 | 1.01 | 0.908 | 0.934 | 0.686 | 0.729 | 0.734 | 0.665 | 0.437 | 0.756 | 0.775 | 0.72 | 0.675 | 0.479 | 0.512 | 0.501 | 0.438 | 0.787 | 0.787 | 0.8 | 0.594
5 | LU99A | 0.969 | 0.919 | 0.986 | 0.984 | 1.03 | 0.818 | 0.864 | 0.78 | 0.263 | 0.267 | 0.276 | 0.313 | 0.376 | 0.307 | 0.328 | 0.292 | 0.861 | 0.806 | 1.1 | 0.973
6 | LXF-289 | 1.04 | 1.02 | 1.06 | 0.993 | 0.998 | 0.956 | 0.964 | 0.959 | 0.824 | 0.721 | 0.805 | 0.741 | 0.817 | 0.768 | 0.755 | 0.798 | 0.331 | 0.36 | 0.391 | 0.343
7 | NCI-H23 | 1.09 | 0.853 | 0.949 | 0.931 | 0.806 | 0.861 | 0.982 | 0.713 | 0.64 | 0.529 | 0.687 | 0.487 | 0.405 | 0.491 | 0.504 | 0.462 | 0.293 | 0.295 | 0.296 | 0.295
